The values that follow come from PMC6600671, “Design and Synthesis of Indoleamine 2,3-Dioxygenase 1 Inhibitors and Evaluation of Their Use as Anti-Tumor Agents” (Molecules, 2019).

Where two headings read alike, the source gives them in different places.

One assay has as its system IDO1. The following applies: cited from earlier work.
The target of the next assay is rhTDO (Homo sapiens, UniProt P48775). Description: Enzyme-based TDO activity assay (kynurenine absorbance at 492 nm). In kind it is biochemical. The following applies: at 50 μM; shown when calculated IC50 >50 μM; read-out: TDO inhibition rate (%) at 50 μM. The protocol:
(§1) The compounds on IDO1 or TDO activity were determined as follows: A standard reaction mixture (100 μL) containing 100 mM potassium phosphate buffer (pH 6.5), 40 mM ascorbic acid (neutralized with NaOH), 200 μg/mL catalase, 20 μM methylene blue and 0.05 μM rhIDO1 or rhTDO was added to the solution containing the substrate L-tryptophan and the test sample at a determined concentration. […] The yellow pigment derived from kynurenine was measured at 492 nm using a SYNERGY-H1 microplate reader (Biotek Instruments, Inc., Winooski, VT, USA). IC50 was analyzed using the GraphPad Prism 8.0 software (GraphPad Software, San Diego, CA, USA).

In another assay the target is rhIDO1 (Homo sapiens, UniProt P14902). Nature of the assay: Enzyme-based IDO1 activity assay (kynurenine absorbance at 492 nm). Type of assay: biochemical. The following applies: at 50 μM; shown when calculated IC50 >50 μM; read-out: IDO inhibition rate (%) at 50 μM. On the procedure:
as §1

The subject of another assay is MCF7. Description: Cell viability MTT assay, 72 h. Type of assay: cell-based. The settings on record: Homo sapiens; for IC50: read-out: MCF7 IC50. The protocol:
(§2) B16-F10 mouse melanoma cells, NCI-H460 human lung cancer cell line and MCF7 were obtained from American Type Culture Collection (ATCC). All the cell lines were cultured with Dulbecco’ modified Eagle’s medium (DMEM) (Invitrogen Corporation, Waltham, MA, USA) supplemented with 10% fetal bovine serum (FBS) (Hyclone, Waltham, MA, USA) and 1% penicillin streptomycin (Invitrogen) at 37 °C in 5% CO2.
(§3) The in vitro inhibitory effects of the compounds were measured by MTT assay. Briefly, different kinds of cells were plated in 96-well plates at a density of 2000/well. After attachment for overnight at 37 °C, the cells were treated with the compounds at various concentrations. After 72 h culture, the MTT reagent was added to each well, and plates were incubated for another 4 h at 37 °C. Then, the blue-purple crystal formamidine was dissolved in DMSO after discarding the supernatant. Samples were measured using microplate reader at a wavelength of 570 nm (Biotek Instruments, Inc., Winooski, VT, USA). IC50 values were calculated with GraphPad Prism 8.0 software.

For assay [1], the system named is NCI-H460 human lung cancer cell line. Description: Cell viability MTT assay, 72 h. Type of assay: cell-based. The settings on record: for IC50: read-out: H460 IC50. On the procedure: as §2, §3
Where [2] appears, read: Figure 1, reported IDO1 inhibitors.

Chain of rhTDO (P48775 whole entry): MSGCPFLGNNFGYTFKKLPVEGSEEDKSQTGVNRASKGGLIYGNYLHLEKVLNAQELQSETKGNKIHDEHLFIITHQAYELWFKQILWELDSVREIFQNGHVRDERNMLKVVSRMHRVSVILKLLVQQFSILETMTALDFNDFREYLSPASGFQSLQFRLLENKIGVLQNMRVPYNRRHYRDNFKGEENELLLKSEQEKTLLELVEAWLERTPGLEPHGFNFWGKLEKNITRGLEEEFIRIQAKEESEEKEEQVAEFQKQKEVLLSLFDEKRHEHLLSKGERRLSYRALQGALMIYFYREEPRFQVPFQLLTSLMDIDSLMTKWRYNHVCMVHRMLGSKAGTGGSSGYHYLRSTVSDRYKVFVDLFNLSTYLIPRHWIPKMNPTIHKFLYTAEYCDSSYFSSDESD
Chain of rhIDO1 (P14902 whole entry): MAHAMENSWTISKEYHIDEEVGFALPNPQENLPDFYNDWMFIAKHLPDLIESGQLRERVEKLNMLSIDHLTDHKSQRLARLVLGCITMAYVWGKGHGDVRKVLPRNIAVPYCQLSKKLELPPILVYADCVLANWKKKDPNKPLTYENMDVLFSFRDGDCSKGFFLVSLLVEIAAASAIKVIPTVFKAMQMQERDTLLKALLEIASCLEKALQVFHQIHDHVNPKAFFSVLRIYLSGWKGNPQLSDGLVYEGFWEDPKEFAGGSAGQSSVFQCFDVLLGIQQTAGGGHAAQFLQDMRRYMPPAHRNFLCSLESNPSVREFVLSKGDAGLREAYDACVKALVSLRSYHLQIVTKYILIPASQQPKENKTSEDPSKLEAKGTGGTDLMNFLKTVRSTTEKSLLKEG

`Cc1ccc(-c2csc3ncc(C(=O)NCCc4cccc(Cl)c4)n23)cc1` [AMCL-17g]: the IC50 with IDO1 (reported value) is 77 nM.
Regarding `Cc1ccc(NC(=O)Nc2cc([C@H]3C[C@H]3C(=O)O)ccc2N(CC(C)C)CC(C)C)cc1` [BMS-978587], in the assay with IDO1 (setting [2]), the IC50 is 7.1 nM.
Regarding `C[C@@H](C(=O)Nc1ccc(Cl)cc1)C1CCC(c2ccnc3ccc(F)cc23)CC1` (stereo partly drawn) [BMS-986205], the IC50 in the assay on IDO1 (setting [2]) is 1.7 nM.
For `COc1ccc(Cl)cc1-c1cn(Cc2ccc(C(F)(F)F)cc2)nn1` [DX-04-06, 4-(5-chloro-2-methoxyphenyl)-1-(4-(trifluoromethyl)benzyl)-1H-1,2,3-triazole], the results for the inhibition at 50 µM on rhTDO and at rhIDO1 were 23.6% and 13.5%, respectively. Further, the IC50 was 49300 nM in the assay with MCF7 and 48400 nM in assay [1].
The corresponding values for `Oc1ccc(Cl)cc1-c1nn[nH]c1-c1ccc(C(F)(F)F)cc1` [DX-04-07, 4-chloro-2-(5-(4-(trifluoromethyl)phenyl)-1H-1,2,3-triazol-4-yl)phenol] are 21.4%, 38.2%, 12300 nM and 27400 nM.
For `COc1ccc(Cl)cc1-c1nn[nH]c1-c1ccc(C(F)(F)F)cc1` [DX-04-08, 4-(5-chloro-2-methoxyphenyl)-5-(4-(trifluoromethyl)phenyl)-1H-1,2,3-triazole], the inhibition at 50 µM at rhTDO was 11.2%; at rhIDO1, 21.2%; in the assay with MCF7 (at 50 μM, shown when calculated IC50 >50 μM, read-out: MCF7 inhibition rate (%) at 50 μM), 24.9%; in assay [1] (at 50 μM, shown when calculated IC50 >50 μM, read-out: H460 inhibition rate (%) at 50 μM), 7.5%.
As for `NS(=O)(=O)NCCNc1nonc1C(=NO)Nc1ccc(F)c(Br)c1` [INCB024360], in the assay with IDO1 (setting [2]), the IC50 is […].
As to `O=C1CC(c2c[nH]c3ccc(F)cc23)C(=O)N1` (stereo not drawn) [PF-0684003, 3-(5-Fluoro-1H-indol-3-yl)pyrrolidine-2,5-dione], the IC50 with IDO1 (reported value) is […].
On to `O=C1c2ccccc2-n2c1nc1ccccc1c2=O` [Tryptanthrin], for which the IC50 with IDO1 (setting [2]) was 534 nM.
